Results: publication PMC10745721, “Chemical Comparison and Identification of Xanthine Oxidase Inhibitors of Dioscoreae Hypoglaucae Rhizoma and Dioscoreae Spongiosae Rhizoma by Chemometric Analysis and Spectrum–Effect Relationship” (Molecules, 2023)

target: xanthine oxidase (Bos taurus, UniProt P80457); experiment: xanthine oxidase inhibitory assay in vitro (absorbance at 295 nm, uric acid from xanthine); assay type: biochemical; conditions: pure compounds, five concentrations each; read-out: IC50 of xanthine oxidase inhibition
Sequence (P80457 whole entry): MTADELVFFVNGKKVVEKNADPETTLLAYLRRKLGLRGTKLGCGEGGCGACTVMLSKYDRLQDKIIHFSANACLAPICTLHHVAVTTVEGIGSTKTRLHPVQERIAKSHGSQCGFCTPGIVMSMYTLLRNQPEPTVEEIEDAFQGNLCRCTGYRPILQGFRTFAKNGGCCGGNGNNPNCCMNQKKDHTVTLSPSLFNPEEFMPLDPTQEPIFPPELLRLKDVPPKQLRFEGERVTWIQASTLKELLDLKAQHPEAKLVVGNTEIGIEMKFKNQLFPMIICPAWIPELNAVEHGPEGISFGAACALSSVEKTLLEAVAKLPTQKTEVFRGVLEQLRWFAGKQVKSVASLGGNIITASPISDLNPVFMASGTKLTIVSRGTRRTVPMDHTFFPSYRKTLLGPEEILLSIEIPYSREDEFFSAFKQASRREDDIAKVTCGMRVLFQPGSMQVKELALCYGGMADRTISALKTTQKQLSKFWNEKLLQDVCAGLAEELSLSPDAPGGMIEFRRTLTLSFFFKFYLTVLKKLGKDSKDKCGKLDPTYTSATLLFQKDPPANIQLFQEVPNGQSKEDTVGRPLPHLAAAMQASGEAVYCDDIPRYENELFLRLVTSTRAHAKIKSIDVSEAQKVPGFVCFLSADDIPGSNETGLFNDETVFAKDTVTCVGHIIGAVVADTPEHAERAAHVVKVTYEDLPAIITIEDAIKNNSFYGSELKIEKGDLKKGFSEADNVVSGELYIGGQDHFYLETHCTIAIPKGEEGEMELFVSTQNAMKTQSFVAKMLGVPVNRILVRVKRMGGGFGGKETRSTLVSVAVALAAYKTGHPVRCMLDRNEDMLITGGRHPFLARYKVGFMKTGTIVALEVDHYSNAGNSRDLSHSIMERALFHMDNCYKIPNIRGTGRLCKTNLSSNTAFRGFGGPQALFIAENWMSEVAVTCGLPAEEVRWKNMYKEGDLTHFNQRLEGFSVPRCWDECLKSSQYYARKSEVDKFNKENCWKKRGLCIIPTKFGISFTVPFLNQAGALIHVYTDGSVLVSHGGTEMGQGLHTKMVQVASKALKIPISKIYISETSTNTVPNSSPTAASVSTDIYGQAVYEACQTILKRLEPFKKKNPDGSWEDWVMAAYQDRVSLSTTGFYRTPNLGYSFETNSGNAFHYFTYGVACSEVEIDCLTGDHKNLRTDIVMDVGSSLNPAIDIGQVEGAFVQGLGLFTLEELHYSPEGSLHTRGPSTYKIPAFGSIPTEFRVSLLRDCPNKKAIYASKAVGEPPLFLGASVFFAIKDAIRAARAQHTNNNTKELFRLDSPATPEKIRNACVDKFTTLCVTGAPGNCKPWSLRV
Method: For xanthine oxidase inhibition assay, 600 μL of supernatant was concentrated in a Termovap Sample Concentrator (Hangzhou Miulab Instruments Co., Ltd., Hangzhou, China) at 30 °C until elimination of solvent. The residue was redissolved in 600 μL PBS.
The xanthine oxidase inhibitory activities of DH and DS samples were determined by xanthine oxidase inhibitory activity assay in vitro [25], which was based on the increase in absorbance at 295 nm due to the production of uric acid from xanthine. In brief, 50 µL of DH or DS samples, 30 µL of phosphate buffer (70 Mm, pH 7.5), and 40 µL of xanthine oxidase (0.05 U/mL) were added into a 96-well plate. After preincubation at 25 °C for 8 min, 60 µL of xanthine (300 µM) was added. After incubation at 25 °C for 15 min, the reaction was stopped by adding 20 µL of HCl (1.0 M). The absorbance of the mixture solution was recorded at 295 nm by a microplate reader.
The control sample was prepared by adding PBS instead of tested sample. The background sample was prepared by replacing tested sample with the same volume of PBS. The blank sample was prepared by adding PBS instead of xanthine oxidase solution. All experiments were repeated three times. The inhibition ratio of xanthine oxidase was calculated as follows:Inhibition ratio (%) = [1 − (test sample-background sample/control sample-blank sample)] × 100
DH and DS samples were prepared in a series of concentrations. The xanthine oxidase inhibitory activities of DH and DS samples were evaluated by IC50 values (the concentration of the sample inhibited 50% the activity of the xanthine oxidase, and the IC50 values were calculated by a logarithmic regression curve. As DH and DS samples were mixtures of multiple constituents, the molar concentrations were uncertain. Thus, the IC50 values of anti-xanthine oxidase activities of DH and DS samples were expressed as mg/mL raw drug equivalents.

IC50 [µM]	SMILES
220	CO[C@]1(CC[C@@H](C)CO[C@@H]2O[C@H](CO)[C@@H](O)[C@H](O)[C@H]2O)O[C@H]2C[C@H]3[C@@H]4CC=C5C[C@@H](O[C@@H]6O[C@H](CO)[C@@H](O[C@@H]7O[C@@H](C)[C@H](O)[C@@H](O)[C@H]7O)[C@H](O)[C@H]6O[C@@H]6O[C@@H](C)[C@H](O)[C@@H](O)[C@H]6O)CC[C@]5(C)[C@H]4CC[C@]3(C)[C@H]2[C@@H]1C [methyl protodioscin]
200	CC(CCC1(O)OC2CC3C4CC=C5CC(OC6OC(CO)C(OC7OC(C)C(O)C(O)C7O)C(O)C6OC6OC(C)C(O)C(O)C6O)CCC5(C)C4CCC3(C)C2C1C)COC1OC(CO)C(O)C(O)C1O (stereo not shown) [protodioscin]
190	CC(CCC1(O)OC2CC3C4CC=C5CC(OC6OC(CO)C(O)C(OC7OC(CO)C(O)C(O)C7O)C6OC6OC(C)C(O)C(O)C6O)CCC5(C)C4CCC3(C)C2C1C)COC1OC(CO)C(O)C(O)C1O (stereo not shown) [protogracillin]
250	CC1=C(CC[C@@H](C)CO[C@@H]2O[C@H](CO)[C@@H](O)[C@H](O)[C@H]2O)OC2CC3C4CC=C5CC(O[C@@H]6O[C@H](CO)[C@@H](O)[C@H](O[C@@H]7O[C@H](CO)[C@@H](O)[C@H](O)[C@H]7O)[C@H]6O[C@@H]6O[C@@H](C)[C@H](O)[C@@H](O)[C@H]6O)CC[C@]5(C)C4CC[C@]3(C)C12 (stereo partly shown) [pseudoprogracillin]
